Legend:
[1] = system: SARS-CoV-2; type: cell-based; details: for SI (selectivity index): IC50 Vero cell cytotoxicity divided by EC50 of the antiviral assay; for EC50: read-out: Antiviral assay (qPCR) EC50, Vero E6 cells, five concentrations, ± SE
[2] = target: SARS-CoV-2 M^pro (Severe acute respiratory syndrome coronavirus 2, UniProt P0DTD1); assay: biochemical; type: biochemical; details: ± SE, triplicate readings; for IC50: IC50 against SARS-CoV-2 M^pro

Structure (SMILES): O=C(Nc1ccccc1F)c1cc2c(=O)n3ccccc3nc2n1Cc1ccccc1 [Compound 21, 1-Benzyl-N-(2-fluorophenyl)-4-oxo-1,4-dihydropyrido[1,2-a]pyrrolo[2,3-d]pyrimidine-2-carboxamide]
- SI (selectivity index) [1]: 3544
- IC50 [2]: 25.4 ± 2.4 µM

Structure (SMILES): Cn1c(C(=O)Nc2ccc(Cl)cc2)cc2c(=O)n3ccccc3nc21 [Compound 22, N-(4-Chlorophenyl)-1-methyl-4-oxo-1,4-dihydropyrido[1,2-a]pyrrolo[2,3-d]pyrimidine-2-carboxamide]
- SI (selectivity index) [1]: 1766
- EC50 [1]: 0.109 ± 0.0111 µM
- IC50 [2]: 236 ± 4.29 µM

Structure (SMILES): CCc1ccc(NC(=O)c2cc3c(=O)n4ccccc4nc3n2C)cc1 [Compound 24, N-(4-Ethylphenyl)-1-methyl-4-oxo-1,4-dihydropyrido[1,2-a]pyrrolo[2,3-d]pyrimidine-2-carboxamide]
- SI (selectivity index) [1]: 283.3
- IC50 [2]: 82.2 ± 15 µM

Structure (SMILES): CC(=O)c1cccc(NC(=O)c2cc3c(=O)n4ccccc4nc3n2C)c1 [Compound 25, N-(3-Acetylphenyl)-1-methyl-4-oxo-1,4-dihydropyrido[1,2-a]pyrrolo[2,3-d]pyrimidine-2-carboxamide]
- SI (selectivity index) [1]: 1135
- IC50 [2]: 5.42 µM
- IC50 against SARS-CoV-2 M^pro [2]: low micromolar concentrations

Structure (SMILES): Cc1cccn2c(=O)c3cc(C(=O)Nc4ccc(N(C)C)cc4)n(C)c3nc12 [Compound 26, N-(4-(Dimethylamino)phenyl)-1,9-dimethyl-4-oxo-1,4-dihydropyrido[1,2-a]pyrrolo[2,3-d]-pyrimidine-2-carboxamide]
- Antiviral assay (qPCR) Inhibition % ([1]; 10 µM): 94.05%
- SI (selectivity index) [1]: 2323
- IC50 [2]: 407.5 ± 3.44 µM

Structure (SMILES): Cc1ccc(NC(=O)c2cc3c(=O)n4cccc(C)c4nc3n2C)cc1Cl [Compound 27, N-(3-Chloro-4-methylphenyl)-1,9-dimethyl-4-oxo-1,4-dihydropyrido[1,2-a]pyrrolo[2,3-d]-pyrimidine-2-carboxamide]
- SI (selectivity index) [1]: 622.2
- IC50 [2]: 165 ± 16.7 µM

Structure (SMILES): Cc1cc(NC(=O)c2cc3c(=O)n4cccc(C)c4nc3n2C)ccc1Br [Compound 28, N-(4-Bromo-3-methylphenyl)-1,9-dimethyl-4-oxo-1,4-dihydropyrido[1,2-a]pyrrolo[2,3-d]-pyrimidine-2-carboxamide]
- SI (selectivity index) [1]: 1278
- IC50 [2]: 46 ± 8.62 µM

Structure (SMILES): Cn1c(C(=O)Nc2ccc3c(c2)OCCO3)cc2c(=O)n3ccccc3nc21 [Compound 29, N-(2,3-Dihydrobenzo[b][1,4]dioxin-6-yl)-1-methyl-4-oxo-1,4-dihydropyrido[1,2-a]pyrrolo-[2,3-d]pyrimidine-2-carboxamide]
- SI (selectivity index) [1]: 2909
- EC50 [1]: 0.0519 ± 0.00512 µM
- IC50 [2]: 3.22 ± 2.83 µM
- IC50 against SARS-CoV-2 M^pro [2]: low micromolar concentrations

Structure (SMILES): CCC(CC)COC(=O)[C@H](C)N[P@](=O)(OC[C@H]1O[C@@](C#N)(c2ccc3c(N)ncnn23)[C@H](O)[C@@H]1O)Oc1ccccc1 [Remdesivir, reference compound]
- SI (selectivity index) [1]: 7195
